This note sets out measurements from PMC8213057, “Targeting ALK2: An Open Science Approach to Developing Therapeutics for the Treatment of Diffuse Intrinsic Pontine Glioma” (Journal of Medicinal Chemistry, 2020).

One assay has as its target T1, Aurora C (Homo sapiens, UniProt Q9UQB9).
T1 sequence (Q9UQB9 1-309): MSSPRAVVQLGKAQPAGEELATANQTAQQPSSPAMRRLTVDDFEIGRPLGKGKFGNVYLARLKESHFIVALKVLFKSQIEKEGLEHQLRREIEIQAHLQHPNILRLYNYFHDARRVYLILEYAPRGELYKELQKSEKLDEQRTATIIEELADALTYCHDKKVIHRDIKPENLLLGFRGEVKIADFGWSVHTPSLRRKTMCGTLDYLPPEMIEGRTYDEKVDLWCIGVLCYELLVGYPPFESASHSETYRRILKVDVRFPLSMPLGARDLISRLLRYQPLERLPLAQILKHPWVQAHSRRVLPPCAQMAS
The note with it: 1 μM; Run 1, Run 2.

In a further assay the target is T2, c-MER (Homo sapiens, UniProt Q12866).
T2 sequence (Q12866 21-999): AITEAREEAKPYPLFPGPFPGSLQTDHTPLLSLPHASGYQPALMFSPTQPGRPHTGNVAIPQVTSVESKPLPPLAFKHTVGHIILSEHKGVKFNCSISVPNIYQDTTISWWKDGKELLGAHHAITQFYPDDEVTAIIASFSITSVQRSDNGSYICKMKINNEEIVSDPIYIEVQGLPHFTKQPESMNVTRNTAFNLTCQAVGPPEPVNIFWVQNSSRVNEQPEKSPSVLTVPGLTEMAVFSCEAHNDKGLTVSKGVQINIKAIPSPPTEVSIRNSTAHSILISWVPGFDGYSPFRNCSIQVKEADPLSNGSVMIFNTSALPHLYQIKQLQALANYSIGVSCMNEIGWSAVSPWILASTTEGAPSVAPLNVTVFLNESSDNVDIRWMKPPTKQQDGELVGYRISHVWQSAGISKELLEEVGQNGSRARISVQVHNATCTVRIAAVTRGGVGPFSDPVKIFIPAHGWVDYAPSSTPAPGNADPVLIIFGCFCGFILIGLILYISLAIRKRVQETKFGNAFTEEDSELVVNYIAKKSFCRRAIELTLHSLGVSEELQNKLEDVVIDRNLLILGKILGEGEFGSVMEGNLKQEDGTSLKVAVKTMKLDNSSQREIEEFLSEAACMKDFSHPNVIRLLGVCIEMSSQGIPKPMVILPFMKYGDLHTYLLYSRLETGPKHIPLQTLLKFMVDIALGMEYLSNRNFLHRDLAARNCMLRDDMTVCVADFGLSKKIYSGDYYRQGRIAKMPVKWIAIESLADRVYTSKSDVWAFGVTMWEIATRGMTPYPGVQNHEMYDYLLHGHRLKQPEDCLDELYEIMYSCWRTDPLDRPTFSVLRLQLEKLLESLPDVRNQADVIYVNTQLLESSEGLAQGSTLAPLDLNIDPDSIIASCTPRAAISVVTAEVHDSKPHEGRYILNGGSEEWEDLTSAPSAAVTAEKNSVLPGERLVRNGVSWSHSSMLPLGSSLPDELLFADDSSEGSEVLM
To be noted: 1 μM; Run 1, Run 2.

For the next assay, the target named is CLK3 (Homo sapiens, UniProt P49761). The note with it: 1 μM; Run 1, Run 2.
Chain of CLK3 (P49761 whole entry): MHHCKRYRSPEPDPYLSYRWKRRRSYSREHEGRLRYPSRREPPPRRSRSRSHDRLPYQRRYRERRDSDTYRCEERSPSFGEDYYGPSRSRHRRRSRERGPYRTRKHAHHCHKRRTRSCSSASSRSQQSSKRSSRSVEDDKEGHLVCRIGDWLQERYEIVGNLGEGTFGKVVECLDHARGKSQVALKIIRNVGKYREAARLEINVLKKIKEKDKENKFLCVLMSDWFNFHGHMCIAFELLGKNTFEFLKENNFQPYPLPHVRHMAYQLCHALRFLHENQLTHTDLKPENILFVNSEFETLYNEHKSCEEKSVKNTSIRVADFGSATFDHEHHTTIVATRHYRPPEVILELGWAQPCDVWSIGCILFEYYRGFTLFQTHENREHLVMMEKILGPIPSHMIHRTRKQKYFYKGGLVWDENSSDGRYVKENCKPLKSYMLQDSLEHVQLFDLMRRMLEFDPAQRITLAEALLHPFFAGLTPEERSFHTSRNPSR
The target of the next assay is MST3/STK24 (Homo sapiens, UniProt Q9Y6E0). To be noted: 1 μM; Run 1, Run 2.
Chain of MST3/STK24 (Q9Y6E0 whole entry): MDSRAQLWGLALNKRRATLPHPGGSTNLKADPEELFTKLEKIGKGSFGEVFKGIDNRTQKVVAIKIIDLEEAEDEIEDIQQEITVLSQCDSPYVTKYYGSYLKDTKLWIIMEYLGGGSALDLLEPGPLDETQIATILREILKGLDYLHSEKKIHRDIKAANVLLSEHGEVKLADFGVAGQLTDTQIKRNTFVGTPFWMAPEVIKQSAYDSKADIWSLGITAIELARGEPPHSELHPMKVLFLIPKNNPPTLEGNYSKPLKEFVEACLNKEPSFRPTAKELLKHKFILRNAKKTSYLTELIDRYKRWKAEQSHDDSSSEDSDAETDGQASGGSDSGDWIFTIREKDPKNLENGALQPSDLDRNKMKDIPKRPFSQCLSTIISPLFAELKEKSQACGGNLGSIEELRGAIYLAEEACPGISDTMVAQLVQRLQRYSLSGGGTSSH
For another assay, the target named is YES/YES1 (Homo sapiens, UniProt P07947). To be noted: 1 μM; Run 1, Run 2.
Chain of YES/YES1 (P07947 whole entry): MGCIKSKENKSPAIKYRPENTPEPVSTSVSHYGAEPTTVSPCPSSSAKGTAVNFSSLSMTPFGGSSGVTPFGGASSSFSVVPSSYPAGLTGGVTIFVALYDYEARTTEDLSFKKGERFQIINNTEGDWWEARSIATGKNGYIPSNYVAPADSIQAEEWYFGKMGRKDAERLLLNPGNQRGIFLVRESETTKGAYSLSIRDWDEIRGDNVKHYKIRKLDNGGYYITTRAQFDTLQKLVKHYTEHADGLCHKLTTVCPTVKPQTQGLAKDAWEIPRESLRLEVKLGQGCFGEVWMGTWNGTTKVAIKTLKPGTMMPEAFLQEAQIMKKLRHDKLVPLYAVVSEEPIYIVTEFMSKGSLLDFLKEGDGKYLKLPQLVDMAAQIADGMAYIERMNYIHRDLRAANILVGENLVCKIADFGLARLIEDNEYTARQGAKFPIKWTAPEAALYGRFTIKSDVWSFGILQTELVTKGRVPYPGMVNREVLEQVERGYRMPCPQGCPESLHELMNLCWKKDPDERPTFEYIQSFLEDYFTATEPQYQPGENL
A further assay addresses AKT1 (Homo sapiens, UniProt P31749). In words: biochemical. To be noted: read-out: % enzyme activity, 1 μM; Run 1, Run 2.
A further assay deals with AURORA B (Homo sapiens, UniProt Q96GD4). In words: biochemical. To be noted: read-out: % enzyme activity, 1 μM; Run 1, Run 2.
Chain of AURORA B (Q96GD4 whole entry): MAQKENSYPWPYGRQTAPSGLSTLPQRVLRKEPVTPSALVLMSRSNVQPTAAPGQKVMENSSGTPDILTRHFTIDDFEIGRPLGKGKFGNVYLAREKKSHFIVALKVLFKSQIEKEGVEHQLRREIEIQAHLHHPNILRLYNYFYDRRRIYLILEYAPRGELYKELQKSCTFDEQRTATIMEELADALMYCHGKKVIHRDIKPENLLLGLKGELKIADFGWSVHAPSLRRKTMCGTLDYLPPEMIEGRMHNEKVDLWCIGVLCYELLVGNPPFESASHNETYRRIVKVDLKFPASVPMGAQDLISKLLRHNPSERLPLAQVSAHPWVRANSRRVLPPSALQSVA
Another assay addresses FGR (Homo sapiens, UniProt P09769). In words: biochemical. The note with it: read-out: % enzyme activity, 1 μM; Run 1, Run 2.
The next assay addresses T3, IRAK4 (Homo sapiens, UniProt Q9NWZ3).
T3 sequence (Q9NWZ3 1-460): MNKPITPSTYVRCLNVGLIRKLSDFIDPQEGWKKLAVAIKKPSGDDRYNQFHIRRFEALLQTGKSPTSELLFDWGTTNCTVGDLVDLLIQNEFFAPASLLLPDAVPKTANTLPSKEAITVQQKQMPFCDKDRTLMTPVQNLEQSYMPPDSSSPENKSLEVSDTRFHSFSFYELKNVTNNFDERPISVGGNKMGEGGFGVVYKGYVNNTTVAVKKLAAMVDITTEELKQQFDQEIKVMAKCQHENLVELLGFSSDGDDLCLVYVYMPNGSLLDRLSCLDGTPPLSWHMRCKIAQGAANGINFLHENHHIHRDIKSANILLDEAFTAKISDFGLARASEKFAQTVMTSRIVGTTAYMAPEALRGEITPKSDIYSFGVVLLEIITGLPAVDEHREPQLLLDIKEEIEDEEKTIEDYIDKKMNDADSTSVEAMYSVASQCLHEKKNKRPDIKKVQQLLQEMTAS
Description: biochemical. The note with it: read-out: % enzyme activity, 1 μM; Run 1, Run 2.

The target of another assay is T4, PKMYT1 (Homo sapiens, UniProt Q99640).
T4 sequence (Q99640 1-499): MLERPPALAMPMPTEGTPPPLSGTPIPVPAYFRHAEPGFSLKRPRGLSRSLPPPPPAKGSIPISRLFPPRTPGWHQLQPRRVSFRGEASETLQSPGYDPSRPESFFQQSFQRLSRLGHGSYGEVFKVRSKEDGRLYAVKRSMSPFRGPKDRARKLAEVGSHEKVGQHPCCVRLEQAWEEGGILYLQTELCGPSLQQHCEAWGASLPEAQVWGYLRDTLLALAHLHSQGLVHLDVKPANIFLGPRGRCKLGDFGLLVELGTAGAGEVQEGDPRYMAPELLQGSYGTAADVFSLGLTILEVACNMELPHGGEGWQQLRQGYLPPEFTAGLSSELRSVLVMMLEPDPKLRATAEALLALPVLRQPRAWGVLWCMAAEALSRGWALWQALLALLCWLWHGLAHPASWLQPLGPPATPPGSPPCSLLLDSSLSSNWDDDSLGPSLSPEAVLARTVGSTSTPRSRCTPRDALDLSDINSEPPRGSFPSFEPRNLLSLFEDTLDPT
Description: biochemical. The note with it: read-out: % enzyme activity, 1 μM; Run 1, Run 2.

SMILES strings stand for the structures.

Chain of AKT1 (P31749 whole entry): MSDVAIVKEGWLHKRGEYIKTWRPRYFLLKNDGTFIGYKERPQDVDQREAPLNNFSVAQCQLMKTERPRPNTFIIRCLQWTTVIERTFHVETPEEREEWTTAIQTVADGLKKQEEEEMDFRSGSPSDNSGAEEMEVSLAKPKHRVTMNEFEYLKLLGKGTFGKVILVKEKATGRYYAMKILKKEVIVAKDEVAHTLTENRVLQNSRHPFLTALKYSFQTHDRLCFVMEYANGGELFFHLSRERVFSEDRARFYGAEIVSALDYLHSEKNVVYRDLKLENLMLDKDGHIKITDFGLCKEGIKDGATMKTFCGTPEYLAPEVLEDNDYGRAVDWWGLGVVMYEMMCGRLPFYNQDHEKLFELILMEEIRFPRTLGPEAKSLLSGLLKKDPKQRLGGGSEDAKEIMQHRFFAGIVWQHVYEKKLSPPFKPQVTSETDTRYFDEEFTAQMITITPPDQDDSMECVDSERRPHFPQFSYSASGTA
Chain of FGR (P09769 whole entry): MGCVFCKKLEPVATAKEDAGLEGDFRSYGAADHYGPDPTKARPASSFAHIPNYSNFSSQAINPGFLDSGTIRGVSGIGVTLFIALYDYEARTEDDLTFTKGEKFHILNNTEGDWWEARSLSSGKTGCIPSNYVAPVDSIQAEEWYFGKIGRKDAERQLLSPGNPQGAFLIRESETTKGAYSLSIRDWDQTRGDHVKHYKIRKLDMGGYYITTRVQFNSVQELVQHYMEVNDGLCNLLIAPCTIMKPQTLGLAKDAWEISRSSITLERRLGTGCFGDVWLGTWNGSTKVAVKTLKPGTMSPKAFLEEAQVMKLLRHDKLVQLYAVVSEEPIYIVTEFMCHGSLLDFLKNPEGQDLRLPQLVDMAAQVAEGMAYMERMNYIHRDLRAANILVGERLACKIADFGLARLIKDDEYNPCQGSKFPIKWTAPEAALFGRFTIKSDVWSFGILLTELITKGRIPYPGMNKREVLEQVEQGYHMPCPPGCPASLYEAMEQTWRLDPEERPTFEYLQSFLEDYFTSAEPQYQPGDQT

Turning to `COc1cc(-c2cncc(-c3ccc(N4C[C@@H](C)N(C)[C@@H](C)C4)cc3)c2C)cc(F)c1C(N)=O` [Compound 26c, 2-Fluoro-6-methoxy-4-(4-methyl-5-(4-((3R,5S)-3,4,5-trimethylpiperazin-1-yl)phenyl)pyridin-3-yl)benzamide], the “% enzyme activity” value at Aurora C turned out to be 99.34%; at c-MER, 96.34%; at CLK3, 86.89%; at MST3/STK24, 94.57%; at YES/YES1, 108.87%. Besides, the remaining activity at 1 µM was found to be 105% on AKT1; 105% on AURORA B; 89.4% on FGR; 84.9% on IRAK4; 94.5% at PKMYT1.

In the case of `COc1cc(-c2cncc(-c3ccc(N4CCN(C)CC4)cc3)c2C)cc(F)c1C(N)=O` [Compound 26a, 2-Fluoro-6-methoxy-4-(4-methyl-5-(4-(4-methylpiperazin-1-yl)phenyl)pyridin-3-yl)benzamide], the “% enzyme activity” value was 103.00% at Aurora C; 99.93% on c-MER; 99.59% at CLK3; 87.91% at MST3/STK24; 104.56% at YES/YES1. Further, the remaining activity at 1 µM on AKT1 stood at 106%; at AURORA B, 102%; on FGR, 83.1%; at IRAK4 it was 78.5%; at PKMYT1, 101%.
